Entries after “also recorded” stand apart in the source; their conditions may differ. Read-outs that look alike come from different tables or passages of the source.
How the values were obtained:
mouse ileal loops [1] = experiment: Basal fluid absorption in closed mouse ileal loops, nanoparticle-conjugated peptides, with or without Tenapanor; format: in vivo
Procedure: (§1) All in vivo studies were performed on 8-12 week old C57B1/6N mice anesthetized with isofluorane and kept at 37° C. via heating lamps and rectal thermal probes.
(§2) Effect on basal fluid transport and effect of Tenapanor. Mice operated on as above had 3-4 cm closed ileal loops inoculated with 150-μL PBS containing 400-nM nanoparticle-CP-2 or -N3SP-1Δ7. After 4 h, the loops were drained and inoculated with 150-μL PBS. 30 min later, the animals were sacrificed and loop weight/length determined. In parallel studies, Tenapanor (10 μM) was present in both incubation periods. Similar to the BODIPY-conjugated peptide studies, the effects of nanoparticle-CP-2 or N3SP-1Δ7 (4 μM) compared to PBS alone were determined on net fluid secretion produced by inoculation of 0.1-μg CTx. The nanoparticle-peptides plus 0.1-μg CTx in 150-μL PBS were inoculated in 3-4 cm long closed ileal loops. Additional controls included loops exposed only to 150-μL PBS and those only exposed to the CTx/PBS. 4 h later, the animals were sacrificed and loop weight/cm length was determined.

mouse jejunum [2] = settings: in vivo
NHE3 [3] = experiment: NHE3 activity in polarized Caco-2/BBe/HA3-NHE3 cells (BCECF); format: cell-based; settings: for EC50: Hill equation
NHE3 [4] = experiment: NHE3 activity in PS120/HA3-NHE3/NHERF2 cells (BCECF); format: cell-based, rabbit
mouse jejunum [5] = experiment: Anti-CD3 monoclonal antibody-induced (TNFα-mediated inflammation) fluid secretion, mouse jejunal loops; format: in vivo
mouse jejunum [6] = settings: in vivo; remark: listed apart in the source
mouse jejunum [7] = experiment: Basal net water transport, in vivo perfusion of mouse jejunal loops
[8] = test system: CTx-induced electrogenic anion secretion; experiment: Short-circuit current (Isc) of CTx-treated mouse jejunal loops, Ussing chamber/voltage clamp; settings: for Isc in CTx treated loops compared to CTx in PBS: 400 nM peptide with 1-μg CTx for 6 h, no further secretagogue; for peak increases in Isc with sequential addition of FSK and carbachol: CTx exposed loops, 10-μM FSK then 10-μM CCH serosal, CP-1 vs N3SP-1
NHE3 [9] = experiment: NHE3 activity in differentiated human enteroid monolayers after nanoparticle delivery of peptide; format: cell-based; settings: nanoparticles (250 nM) 18 h, FSK exposure, n=4
Procedure: (§3) NHE3 activity in PS120, Caco-2/BBe cells and human jejunal enteroids was determined fluorometrically (Photon Technologies Incorporated) using the intracellular pH sensitive dye BCECF, as reported (Levine et al., 1993; Sarker et al., 2008; Foulke-Abel et al., 2020). PS120/HA3-NHE3 cells were seeded on glass cover slips and studied at 70-80% confluency. Caco-2/BBe/HA3-NHE3 cells were grown to confluency on Transwell inserts (polyester, 0.4-μm pore size) and studied approximately 14-16 days pod. Human duodenal enteroid monolayers on Transwell inserts were differentiated for 5 days in the absence of Wnt3a, R-spondin, and noggin as described (Noel et al., 2017; Staab et al., 2020).
(§4) Rates of Na^+/H^+ exchange were determined as Na^+-dependent alkalinization in the presence of 50-μM HOE-694 (to inhibit all other plasma membrane NHE isoforms) in HCO3-free solutions, with internal calibration using the nigericin/K+ method, as previously described (Sarker et al., 2008; Foulke-Abel et al., 2020). Kinetic analysis was used for PS120 cell studies (expressed as Vmax) and initial rates (ΔpH/min) for Caco-2/BBe cells, mouse intestine in vitro, and human enteroids. For in vitro mouse jejunal transport studies, NHE3 activity (in the presence of 50-μM HOE-694) was measured using SNARF-4F at 37° C. in a perfusion chamber using a two-photon microscope (Olympus FV1000) and 25× objective, as described (Murtazina et al., 2011).
PBAE polymer and peptide were separately dissolved in pH 7.4 150-mM PBS and combined at a 1:1 volume ratio. Final concentrations of the components were 6-ng/μL peptide and 180-ng/μL polymer (30:1 polymer: peptide weight ratio). Polymer and peptide nanoparticles were allowed to self-assemble at room temperature for 10 minutes. For characterization, nanoparticles were diluted 1:5 in PBS. Hydrodynamic diameter and zeta potential were measured using a Malvern Zetasizer Pro (Malvern Panalytical, Malvern, UK). Stability was assessed by incubating nanoparticles at RT up to 45 minutes then measuring hydrodynamic diameter over 45 minutes. […]

adenylate cyclase-cAMP = experiment: cAMP assay in human enteroid monolayers exposed to FSK; format: cell-based; settings: nanoparticles with 250-nM peptide, FSK (10 μM) 45 min, CP-2 vs N3SP-1Δ7
Procedure: Human jejunal enteroid monolayers on Transwell inserts (Corning Cat #: 3470) were differentiated for 5 days and then in serum-free media were exposed apically to nanoparticles containing either 250-nM CP-2 or N3SP-1Δ7. The peptide and polymer in PBS were prepared just before use, allowed to combine for 10 min before being added to the apical surface of enteroid monolayers at room temperature. Monolayers were incubated for 4 hours at 37° C., 5% CO2 incubator before the nanoparticles were removed, then monolayers were washed 3 times with cold PBS and changed to differentiation media and moved to a 37° C. incubator. Differentiation media was removed 24 hours later and washed twice with CMGF-media (Advanced DMEM/F12 with 10-mM Hepes, 10-mM GlutaMax, and 1000 Units/mL Penn/Strep). Next, 100 μL of CMGF-media containing 10-mM Theophylline, 50-μM Cilostazol and 50-μM Rolipram was added to the apical and basolateral surfaces followed by exposure to FSK (10 μM) at 37° C., 5% CO2, for 45 min before apical and basolateral media were collected and cells were lysed in 200-μL 0.1 M HCl for cAMP analysis. CAMP in apical, basolateral, and cells was determined using nonradioactive, CAMP-ELISA kits from ENZO Life Sciences (Loerrach, German), using the acetylation protocol in which the yellow-colored product is inversely proportional to the amount of CAMP present in the sample.

[10] = Nanoparticle characterization: hydrodynamic diameter, zeta potential, stability; format: physicochemical; settings: CR5 with peptide, 30:1 polymer:peptide weight ratio
Procedure: PBAE polymer and peptide were separately dissolved in pH 7.4 150-mM PBS and combined at a 1:1 volume ratio. Final concentrations of the components were 6-ng/μL peptide and 180-ng/μL polymer (30:1 polymer: peptide weight ratio). Polymer and peptide nanoparticles were allowed to self-assemble at room temperature for 10 minutes. For characterization, nanoparticles were diluted 1:5 in PBS. Hydrodynamic diameter and zeta potential were measured using a Malvern Zetasizer Pro (Malvern Panalytical, Malvern, UK). Stability was assessed by incubating nanoparticles at RT up to 45 minutes then measuring hydrodynamic diameter over 45 minutes. Nanoparticles were made immediately prior to each experiment.

mouse ileal loops [11] = experiment: CTx-induced fluid secretion in closed mouse ileal loops, nanoparticle-conjugated peptides; format: in vivo; settings: nanoparticle-peptide 4 μM with 0.1-μg CTx, 4 hours
Procedure: as §1, §2

NHE3 [12] = experiment: Effect of N-terminal truncations of N3SP-1 on NHE3 activity in human enteroids (BCECF-fluorometry); format: cell-based; settings: human duodenal enteroids, Hill equation; for Stimulation of NHE3 Activity: basal NHE3 activity, BCECF-fluorometry; for EC50: stimulation of basal NHE3 activity
Procedure: as §3, §4
Concentration dependent effects on NHE3 basal activity was determined using BCECF-fluorometry. Kinetic analysis was determined of extent of stimulation of basal NHE3 activity; analysis was by use of the Hill equation.
Given the ability of N3SP-1Δ7 to prevent CTx-induced fluid secretion in vivo (FIG. 3E) and to stimulate basal NHE3 activity and prevent cAMP inhibition in human enteroids (FIG. 4C), further studies were carried out with human enteroids to determine the shortest N3SP-1-related peptide that would stimulate human NHE3. A series of N3SP-1 N-terminal truncations was synthesized and concentration-dependent stimulation of NHE3 activity determined using human jejunal enteroids.

NHE3 [13] = experiment: NHE3 stimulation, summary statement over models and delivery systems; format: cell-based; settings: using either delivery system (maleimide or nanoparticles); read-out: EC50 for stimulation of basal and second messenger inhibited NHE3
NHE3 [14] = experiment: NHE3 activity in mouse jejunum in vitro (two-photon microscope/SNARF-4F); format: cell-based

CN1Cc2c(Cl)cc(Cl)cc2[C@H](c2cccc(S(=O)(=O)NCCOCCOCCNC(=O)NCCCCNC(=O)NCCOCCOCCNS(=O)(=O)c3cccc([C@@H]4CN(C)Cc5c(Cl)cc(Cl)cc54)c3)c2)C1 [Tenapanor, reference compound]
effect on N3SP-1Δ7 increased baseline fluid absorption (mouse ileal loops [1]; pretreatment with 10-μM Tenapanor): prevented

CP-1: 21 aa control peptide representing aa 585-605 of rabbit NHE3 (YLLRESASAVCLDMQSLEQRR; UniProt P26432 585-605, looked up, fragment)
effect on STa-induced intestinal fluid accumulation (mouse jejunum [2]): not observed | EGF stimulation of NHE3 activity in presence of peptide (NHE3 [3]): 38% | effect on basal NHE3 activity compared to BODIPY alone (NHE3 [4]): no significant effect | effect on basal NHE3 activity in the absence of BODIPY conjugation (NHE3 [4]): Neither CP-1 nor N3SP-1 altered basal NHE3 activity | effect on anti-CD3 antibody-induced luminal fluid accumulation (mouse jejunum [5]; mouse, in vivo, ip): increased luminal fluid accumulation | effect on CTx-stimulated net fluid secretion (loop weight/cm) (mouse jejunum [6]): did not alter fluid accumulation | localization of NHE3 in CTx-treated jejunum (mouse jejunum [6]): NHE3 was internalized | jejunal net water transport (mouse jejunum [7]; mouse, in vivo): 4.2 µL/min/cm | Isc in CTx treated loops compared to CTx in PBS [8]: slightly, but not significantly, greater | peak increases in Isc with sequential addition of FSK and carbachol [8]: not different

CP-2: control peptide, N3SP-1 lacking first ten N-terminal amino acids (rabbit NHE3 residues 578-605) (TVEASVSYLLRESASAVCLDMQSLEQRR; UniProt P26432 578-605, looked up, fragment)
NHE3 activity after FSK, % of same peptide without FSK (NHE3 [9]): 77.2% | residual fluid in presence of Tenapanor, CP2 vs N3SP-1Δ7 (mouse ileal loops [1]; nanoparticle conjugated peptide 400 nM, Tenapanor (10 μM) in both incubation periods): no difference in residual fluid | FSK-increased intracellular cAMP (adenylate cyclase-cAMP): similar | surface zeta potential (electrophoretic light scattering) [10]: 24.6±0.5 mV | nanoparticle diameter (DLS) ([10]; aqueous): 319±55 nm | effect on CTx-stimulated net fluid secretion (loop weight/cm) (mouse jejunum [6]): Results similar to those with N3SP-1 and CP-1 | effect on CTx-induced fluid in ileal loops (loop weight/length) (mouse ileal loops [11]): did not reduce the residual loop volume

N3SP-1 N-terminal truncation of 5 aa: TPRPSTVEASVSYLLRESASAVCLDMQSLEQRR [Peptide N3SP-1Δ5]
Stimulation of NHE3 Activity (NHE3 [12]): YES (39%) | EC50 (NHE3 [12]): 154 nM

N3SP-1 N-terminal truncation of 6 aa: PRPSTVEASVSYLLRESASAVCLDMQSLEQRR [Peptide N3SP-1Δ6]
Stimulation of NHE3 Activity (NHE3 [12]): YES (40%) | EC50 (NHE3 [12]): 151 nM

N3SP: general name of the NHE3 stimulatory peptide (N3SP-1 and active truncations) (RPSTVEASVSYLLRESASAVCLDMQSLEQRR) [Peptide N3SP]
EC50 (NHE3 [13]): ~150 nM

NHE3 mimetic peptide, rabbit NHE3 aa 568-605: NVDFSTPRPSTVEASVSYLLRESASAVCLDMQSLEQRR [Peptide N3SP-1]
stimulation of basal NHE3 activity compared to CP-1 (NHE3 [14]; BODIPY-conjugated peptide 400 nM): 57% | effect on inhibition of NHE3 by FSK (NHE3 [14]; BODIPY-conjugated peptide pretreatment, FSK (10 μM)): prevented inhibition | Stimulation of NHE3 Activity (NHE3 [12]): YES (38%) | EC50 (NHE3 [12]): 152 nM | effect on STa-induced intestinal fluid accumulation (mouse jejunum [2]): significantly reduced | stimulation of basal NHE3 activity compared to CP-1 (NHE3 [3]; BODIPY-conjugated peptide 400 nM, Caco-2/BBe/HA3-NHE3 cells): 41% | EC50 (NHE3 [3]; BODIPY-conjugated peptide added apically, Caco-2/BBe cells, read-out: EC50 of prevention of FSK inhibition of NHE3): 157 nM | effect on inhibition of NHE3 by FSK (NHE3 [3]; BODIPY-conjugated peptide pretreatment, FSK (10 μM), Caco-2/BBe cells): prevented inhibition | effect on inhibition of NHE3 by carbachol (NHE3 [3]; BODIPY-conjugated peptide pretreatment, carbachol (10 μM), Caco-2/BBe cells): prevented inhibition | concentration of maximal effect on basal NHE3 activity (NHE3 [3]; BODIPY-conjugated peptide, Caco-2/BBe/HA3-NHE3 cells): 400 nM | EC50 (NHE3 [3]; BODIPY-conjugated peptide, Caco-2/BBe/HA3-NHE3 cells, read-out: EC50 of stimulation of basal NHE3 activity): 152 nM | EGF stimulation of NHE3 activity in presence of peptide (NHE3 [3]; EGF (200 ng/mL), BODIPY-conjugated peptide 400 nM, Caco-2/BBe cells): 35% | stimulation of basal NHE3 activity compared to CP-1 (NHE3 [4]; BODIPY-conjugated peptide 400 nM, PS120/HA3-NHE3/NHERF2 cells): 61% | effect on inhibition of NHE3 by 4-Br-A23187 (NHE3 [4]; BODIPY-conjugated peptide pretreatment, 0.5-μM A23187, PS120 fibroblasts): prevented inhibition | effect on basal NHE3 activity in the absence of BODIPY conjugation (NHE3 [4]; unconjugated peptide 400 nM, PS120 cells): No stimulatory effect; also recorded: Neither CP-1 nor N3SP-1 altered basal NHE3 activity | effect on anti-CD3 antibody-induced luminal fluid accumulation (mouse jejunum [5]; 400 nM peptide in loop, 200-μg anti-CD3 antibody IP, 2.5 h): prevents fluid secretion | effect on CTx-stimulated net fluid secretion (loop weight/cm) (mouse jejunum [6]): prevented CTx-stimulated fluid secretion | localization of NHE3 in CTx-treated jejunum (mouse jejunum [6]): NHE3 was detected on the CTx-treated jejunal BB | difference in net water transport between N3SP-1 and CP-1 perfused jejunal loops (mouse jejunum [7]; 400 nM, n=5, p=0.0004): 56.6 ± 15.1 µL/min/cm | Isc in CTx treated loops compared to CTx in PBS [8]: slightly, but not significantly, greater; also recorded: not altered | peak increases in Isc with sequential addition of FSK and carbachol [8]: not different
